Assay results from publication PMC2700083, “A covalent peptide inhibitor of RGS4 identified in a focused one-bead, one compound library screen” (BMC Pharmacology, 2009).
Changes are numbered by the printed parent chain. “And” between values parts separate entries of the source, which are not always exact repeats. Equal values may be shown once. Read-outs that look alike come from different tables or passages of the source. Marks after values point to notes of the source that are not given here. Where a SMILES comes first, the peptide text is derived from it. Bridges are numbered along the chain shown (N, C = ends).

How the values were obtained:
RGS7 = molecular target: T1, RGS7 (Homo sapiens, UniProt P49802); test: FCPIA, Gαo binding to RGS7; conditions: Figure 2
T1 construct: RGS7 RGS domain (aa: 305–453); made in house
T1 sequence (P49802 305-453): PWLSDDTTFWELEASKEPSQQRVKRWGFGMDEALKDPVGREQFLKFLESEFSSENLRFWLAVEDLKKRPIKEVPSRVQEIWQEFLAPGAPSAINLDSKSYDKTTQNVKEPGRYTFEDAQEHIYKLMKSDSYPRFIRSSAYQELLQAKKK
Experimental: (§1) We recently described a bead-based screen in which 2.5 × 10^6 different peptide sequences were prepared as a OBOC library. Fluorescently labeled RGS4 was used to probe the library for peptides that bind RGS4 [5]. […] Since the majority of those hit peptides could bind tightly to the RGS without disrupting GAP activity, they were also tested in the flow cytometry protein interaction assay (FCPIA) (Figure 1), which measures the interaction between RGS4 and Gαo. In this method we used a Luminex flow cytometer to detect the binding of Alexa Fluor 532-labeled Gαo to biotinylated RGS4 on avidin beads in the presence of AMF (AlCl3, MgCl2, NaF and GDP) to put the Gα subunit into a transition state-like conformation. Peptides were tested at 50 μM except where limited by solubility (Table 1).
5nd inhibited Gαo binding to a number of different RGS proteins (Figure 2). […] RGS19 and RGS7 are in the RZ and R7 families, respectively and show less inhibition by 5nd. Linear as well as bridged versions of peptide 5 were tested in the FCPIA since cyclization yields would most likely have been less then 100% in the synthesis of the library leaving some linear peptides present on each bead. […] This may be due to lack of structural rigidity necessary for the correct interaction of the peptide with the RGS protein or a role for chemical reactivity of the disulfide.
Figure 2 Characterization of hit 5. […]

RGS4 A95C, -7C = molecular target: T2, RGS4 A95C, -7C (Rattus norvegicus, UniProt P49799, C132A/C148A/C183A/C197A/C204A/C71A); test: FCPIA, RGS4 A95C in the -7C; type: binding; conditions: read-out: 5nd logIC50 (converted)
T2 construct: made in house
Experimental: (§2) Figure 5 Dose curves of 5nd on various RGS4 cysteine mutants. Various concentrations of 5nd were tested for disruption of the RGS4-Gαo interaction for C95A (5 nM), or […], C71A (5nM) or C148A (5nM) (B), A95C in the -7C (5nM), or A132C in the -7C (5nM) (C), A71C in the -7C (5nM), or A148C in the -7C (5nM) (D) or the mutant with no cysteines in the domain (20 nM) or the C-terminus (20 nM) (E) in the FCPIA (mean ± S.E.M., n ≥ 3).
The previous experiments tested which cysteines are necessary for inhibition by 5nd. In an alternative approach, we added cysteines back to the -7C mutant to determine which might be sufficient for 5nd activity. […] Furthermore, Cys132 is involved in the actions but this is clearly not sufficient to explain them. Thus it is concluded that 5nd is at least partially non-selective in its cysteine modification.
Proteins were expressed, purified and labeled as described previously. The mutagenesis was done using the "QuickChange Multi Site-Directed Mutagenesis Kit" from Stratagene according to the manufacturer's protocol. The construct of RGS4 used in these studies is a maltose binding protein (MBP-) fusion protein of the RGS4 sequence from which the amphipathic N-terminal helix has been removed (i.e. MBP-RGS4Δ51N). For simplicity in the text, this will be referred to as RGS4. […]

RGS4 = molecular target: T3, RGS4 (Rattus norvegicus, UniProt P49799); test: FCPIA (flow cytometry protein interaction assay), RGS4-Gαo interaction, wild type RGS4 (MBP-RGS4Δ51N); type: binding; conditions: peptide 50 μM; 25 nM Gαo-Alexa Fluor-532, 5 nM RGS4-biotin
T3 construct: made in house
T3 sequence (P49799 52-205 limits assumed): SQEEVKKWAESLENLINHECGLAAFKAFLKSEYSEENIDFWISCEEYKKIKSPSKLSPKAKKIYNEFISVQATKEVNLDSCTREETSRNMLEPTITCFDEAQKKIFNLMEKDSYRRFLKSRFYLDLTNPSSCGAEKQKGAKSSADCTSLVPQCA
Experimental: as §1
Figure 1 Hit peptides in the FCPIA. Hit peptides from Roof, et al. 2008 were tested at 50 μM unless otherwise indicated for ability to disrupt the RGS4-Gαo interaction as described using 25 nM Gα o-Alexa Fluor-532 and 5 nM wild type RGS4-biotin (mean ± S.E.M., n ≥ 3) *p < 0.05, **p < 0.01, ***p < 0.001 compared to no peptide.
(§3) Proteins were expressed, purified and labeled as described previously. The mutagenesis was done using the "QuickChange Multi Site-Directed Mutagenesis Kit" from Stratagene according to the manufacturer's protocol. The construct of RGS4 used in these studies is a maltose binding protein (MBP-) fusion protein of the RGS4 sequence from which the amphipathic N-terminal helix has been removed (i.e. MBP-RGS4Δ51N). For simplicity in the text, this will be referred to as RGS4. All other RGS proteins were human sequences and were used as Mpb fusions: RGS7 RGS domain (aa: 305–453), RGS8 full length, RGS16 full length, and RGS19ΔC11 (amino acids 1–209). To cleave RGS4Δ51N from the MBP-His6 construct for MS analysis, MBP-His6-RGS4Δ51N was treated with 15% MBP-His6-TEV protease S219V [11] for 22 hours at 4°C and purified over a Ni-NTA column.
(§4) FCPIA was performed as previously published.

RGS4 C132A = molecular target: T4, RGS4 C132A (Rattus norvegicus, UniProt P49799, C132A); test: FCPIA, RGS4 cysteine mutant C132A; type: binding; conditions: read-out: 5nd logIC50 (converted)
T4 construct: made in house
T4 sequence (P49799 52-205 C132A limits assumed): T3 sequence (P49799 52-205 limits assumed) with C81A
Experimental: as §2, §3, §4

T2 sequence (P49799 52-205 C71A/C132A/C148A/C183A/C197A/C204A): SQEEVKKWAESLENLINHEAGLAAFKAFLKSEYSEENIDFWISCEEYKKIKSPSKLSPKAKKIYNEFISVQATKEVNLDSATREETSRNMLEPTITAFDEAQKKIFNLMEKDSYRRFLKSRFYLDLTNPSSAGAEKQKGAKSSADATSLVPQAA

CC(C)C[C@@H]1NC(=O)CNC(=O)[C@H](CCCCN)NC(=O)[C@@H](NC(=O)[C@H](Cc2c[nH]c3ccccc23)NC(=O)[C@@H](N)Cc2ccc(O)cc2)CSSC[C@@H](C(=O)N[C@@H](CCCCN)C(N)=O)NC1=O [Peptide 5nd, Tyr-Trp-c [Cys-Lys-Gly-Leu-Cys]-Lys-NH2, S-S] (H-YWCKGLCK-NH2; disulfide 3-7)
IC50 (RGS7; read-out: logIC50, RGS7 (converted)): ~174 µM
IC50 (RGS7; dose response, read-out: IC50, Gαo binding to RGS7): 175 µM and ~175 µM
IC50 (RGS4 A95C, -7C): 263 µM
% Inhibition of RGS4-Gαo (RGS4): 80 ± 5*** %
IC50 (RGS4 C132A): 138 µM
